Laboratory results: ChEMBL document CHEMBL5465560, “Selectivity Literature for EUbOPEN Chemogenomic Library” (2024)
Blank lines part the entries; values can stand above or below the molecule they belong to.

What was measured:
[1] = target: Macrophage-stimulating protein receptor (Homo sapiens, UniProt Q04912); test: Selectivity interaction (Kinase panel (Z-LYTE Assay)) EUB0001632a MST1R; conditions: at 10 µM
[2] = target: T1, Ephrin type-A receptor 1 (Homo sapiens) (UniProt P21709); test: Selectivity interaction (SelectScreen profiling (Invitrogen)) EUB0000607a EPHA1; conditions: at 2 µM
T1 sequence (whole entry): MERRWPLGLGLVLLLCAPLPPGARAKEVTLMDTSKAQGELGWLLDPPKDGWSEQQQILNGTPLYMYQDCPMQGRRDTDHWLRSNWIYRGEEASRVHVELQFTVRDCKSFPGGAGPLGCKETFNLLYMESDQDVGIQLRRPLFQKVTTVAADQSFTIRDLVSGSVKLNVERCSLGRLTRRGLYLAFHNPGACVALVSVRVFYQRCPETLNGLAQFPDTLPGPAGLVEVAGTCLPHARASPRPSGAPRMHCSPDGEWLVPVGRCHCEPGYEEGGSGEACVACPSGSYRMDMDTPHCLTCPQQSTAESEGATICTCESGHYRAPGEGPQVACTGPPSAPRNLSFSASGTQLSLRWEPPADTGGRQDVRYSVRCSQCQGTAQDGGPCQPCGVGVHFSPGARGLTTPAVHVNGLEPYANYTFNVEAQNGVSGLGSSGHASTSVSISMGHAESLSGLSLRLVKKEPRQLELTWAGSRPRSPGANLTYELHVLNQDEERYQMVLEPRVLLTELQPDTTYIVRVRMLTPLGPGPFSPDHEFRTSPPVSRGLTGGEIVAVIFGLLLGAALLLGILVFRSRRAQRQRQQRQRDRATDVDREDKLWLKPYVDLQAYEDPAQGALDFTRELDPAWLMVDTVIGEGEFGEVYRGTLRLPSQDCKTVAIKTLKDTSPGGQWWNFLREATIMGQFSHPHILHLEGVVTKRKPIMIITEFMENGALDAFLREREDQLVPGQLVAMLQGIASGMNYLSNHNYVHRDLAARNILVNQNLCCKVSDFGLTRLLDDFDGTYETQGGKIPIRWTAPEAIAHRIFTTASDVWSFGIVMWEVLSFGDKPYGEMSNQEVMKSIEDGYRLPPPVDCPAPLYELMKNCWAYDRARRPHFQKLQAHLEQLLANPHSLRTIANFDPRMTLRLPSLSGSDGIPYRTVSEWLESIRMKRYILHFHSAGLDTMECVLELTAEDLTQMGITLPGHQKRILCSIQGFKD

[3] = target: T2, 5-hydroxytryptamine receptor 3A (Homo sapiens) (UniProt P46098); test: Selectivity interaction (Panel of kinases, GPCRs, ion channels and transporters (enzymatic assay)) EUB0000266bCl HTR3A
T2 sequence (whole entry): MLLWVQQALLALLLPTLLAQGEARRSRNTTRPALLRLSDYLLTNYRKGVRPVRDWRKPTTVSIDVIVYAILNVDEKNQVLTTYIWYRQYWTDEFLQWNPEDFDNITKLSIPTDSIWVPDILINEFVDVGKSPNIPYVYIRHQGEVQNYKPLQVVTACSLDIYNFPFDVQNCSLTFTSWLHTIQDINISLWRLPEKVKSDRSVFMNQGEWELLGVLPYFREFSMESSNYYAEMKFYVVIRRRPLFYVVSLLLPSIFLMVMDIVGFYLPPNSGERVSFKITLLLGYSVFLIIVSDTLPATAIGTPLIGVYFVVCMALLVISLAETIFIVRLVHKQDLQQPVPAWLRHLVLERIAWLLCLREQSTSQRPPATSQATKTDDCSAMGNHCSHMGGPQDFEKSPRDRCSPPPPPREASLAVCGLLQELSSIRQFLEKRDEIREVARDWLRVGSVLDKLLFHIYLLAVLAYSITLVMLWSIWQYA

[4] = target: Calcium/calmodulin-dependent protein kinase kinase 2 (Homo sapiens) (UniProt Q96RR4); test: Selectivity interaction (ActivX KiNativ screen (kinase selectivity in THP-1 cell lysates)) EUB0000639a CAMKK2; format: subcellular; conditions: lysate, at 0.01 µM
Sequence of Calcium/calmodulin-dependent protein kinase kinase 2 (Homo sapiens) (Q96RR4 2-588 limits assumed): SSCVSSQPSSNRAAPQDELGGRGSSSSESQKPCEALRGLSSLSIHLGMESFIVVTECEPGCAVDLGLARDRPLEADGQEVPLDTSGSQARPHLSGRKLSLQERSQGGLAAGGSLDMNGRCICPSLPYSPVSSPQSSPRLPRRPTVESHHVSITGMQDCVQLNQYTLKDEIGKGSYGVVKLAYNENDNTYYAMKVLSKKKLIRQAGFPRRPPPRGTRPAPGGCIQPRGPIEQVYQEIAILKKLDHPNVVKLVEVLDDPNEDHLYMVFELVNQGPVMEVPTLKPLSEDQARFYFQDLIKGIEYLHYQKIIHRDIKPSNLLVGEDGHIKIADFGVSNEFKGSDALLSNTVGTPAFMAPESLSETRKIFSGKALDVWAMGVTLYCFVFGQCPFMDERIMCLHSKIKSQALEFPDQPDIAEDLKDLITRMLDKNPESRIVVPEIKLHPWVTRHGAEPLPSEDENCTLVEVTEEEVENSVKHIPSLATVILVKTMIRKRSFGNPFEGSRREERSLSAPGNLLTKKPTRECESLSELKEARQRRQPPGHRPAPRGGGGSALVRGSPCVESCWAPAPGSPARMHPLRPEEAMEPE

[5] = target: Ribosomal protein S6 kinase alpha-1 (Homo sapiens, UniProt Q15418); test: Selectivity interaction (ActivX KiNativ screen (kinase selectivity in THP-1 cell lysates)) EUB0000639a RPS6KA1; format: subcellular; conditions: lysate, at 0.2 µM
[6] = target: Tyrosine-protein kinase HCK (Homo sapiens) (UniProt P08631); test: Selectivity interaction (ActivX KiNativ screen (kinase selectivity in THP-1 cell lysates)) EUB0000639a HCK; format: subcellular; conditions: lysate, at 0.04 µM
Sequence of Tyrosine-protein kinase HCK (Homo sapiens) (P08631 2-526 limits assumed): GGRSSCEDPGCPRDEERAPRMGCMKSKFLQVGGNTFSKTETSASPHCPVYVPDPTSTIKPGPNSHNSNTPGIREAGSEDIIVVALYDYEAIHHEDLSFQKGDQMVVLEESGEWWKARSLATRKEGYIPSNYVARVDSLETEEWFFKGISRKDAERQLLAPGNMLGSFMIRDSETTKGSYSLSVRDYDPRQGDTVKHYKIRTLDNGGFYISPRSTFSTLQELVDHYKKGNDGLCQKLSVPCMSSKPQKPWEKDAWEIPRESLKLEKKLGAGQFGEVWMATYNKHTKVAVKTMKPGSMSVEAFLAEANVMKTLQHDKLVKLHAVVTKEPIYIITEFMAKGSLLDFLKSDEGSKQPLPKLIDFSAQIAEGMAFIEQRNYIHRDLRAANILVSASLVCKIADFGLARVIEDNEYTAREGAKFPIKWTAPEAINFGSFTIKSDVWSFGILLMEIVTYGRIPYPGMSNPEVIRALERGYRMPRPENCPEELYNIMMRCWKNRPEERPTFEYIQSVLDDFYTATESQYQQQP

[7] = target: T3, Serine/threonine-protein kinase 17A (Homo sapiens) (UniProt Q9UEE5); test: Selectivity interaction (Kinase panel (DSF assay)) EUB0001559a STK17A
T3 sequence (whole entry): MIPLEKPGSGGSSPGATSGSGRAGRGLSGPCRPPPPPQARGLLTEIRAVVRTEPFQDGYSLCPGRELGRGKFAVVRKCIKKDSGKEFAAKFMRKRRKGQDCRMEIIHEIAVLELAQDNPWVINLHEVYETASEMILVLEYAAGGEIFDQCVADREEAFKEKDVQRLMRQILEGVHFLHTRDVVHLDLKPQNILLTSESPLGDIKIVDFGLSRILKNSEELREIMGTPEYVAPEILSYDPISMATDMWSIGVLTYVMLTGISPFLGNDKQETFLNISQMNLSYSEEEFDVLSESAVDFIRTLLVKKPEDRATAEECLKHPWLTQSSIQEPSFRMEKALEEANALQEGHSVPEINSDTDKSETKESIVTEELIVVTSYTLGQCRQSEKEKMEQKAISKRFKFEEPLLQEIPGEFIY

[8] = target: Mitogen-activated protein kinase 1 (Homo sapiens, UniProt P28482); test: Selectivity interaction (Millipore kinase profiler) EUB0000124b MAPK1; conditions: at 10 µM
[9] = target: Protein-tyrosine kinase 2-beta (Homo sapiens) (UniProt Q14289); test: Selectivity interaction (KinomeScan (DiscoverX)) EUB0000045b PTK2B
Sequence of Protein-tyrosine kinase 2-beta (Homo sapiens) (Q14289 whole entry, looked up): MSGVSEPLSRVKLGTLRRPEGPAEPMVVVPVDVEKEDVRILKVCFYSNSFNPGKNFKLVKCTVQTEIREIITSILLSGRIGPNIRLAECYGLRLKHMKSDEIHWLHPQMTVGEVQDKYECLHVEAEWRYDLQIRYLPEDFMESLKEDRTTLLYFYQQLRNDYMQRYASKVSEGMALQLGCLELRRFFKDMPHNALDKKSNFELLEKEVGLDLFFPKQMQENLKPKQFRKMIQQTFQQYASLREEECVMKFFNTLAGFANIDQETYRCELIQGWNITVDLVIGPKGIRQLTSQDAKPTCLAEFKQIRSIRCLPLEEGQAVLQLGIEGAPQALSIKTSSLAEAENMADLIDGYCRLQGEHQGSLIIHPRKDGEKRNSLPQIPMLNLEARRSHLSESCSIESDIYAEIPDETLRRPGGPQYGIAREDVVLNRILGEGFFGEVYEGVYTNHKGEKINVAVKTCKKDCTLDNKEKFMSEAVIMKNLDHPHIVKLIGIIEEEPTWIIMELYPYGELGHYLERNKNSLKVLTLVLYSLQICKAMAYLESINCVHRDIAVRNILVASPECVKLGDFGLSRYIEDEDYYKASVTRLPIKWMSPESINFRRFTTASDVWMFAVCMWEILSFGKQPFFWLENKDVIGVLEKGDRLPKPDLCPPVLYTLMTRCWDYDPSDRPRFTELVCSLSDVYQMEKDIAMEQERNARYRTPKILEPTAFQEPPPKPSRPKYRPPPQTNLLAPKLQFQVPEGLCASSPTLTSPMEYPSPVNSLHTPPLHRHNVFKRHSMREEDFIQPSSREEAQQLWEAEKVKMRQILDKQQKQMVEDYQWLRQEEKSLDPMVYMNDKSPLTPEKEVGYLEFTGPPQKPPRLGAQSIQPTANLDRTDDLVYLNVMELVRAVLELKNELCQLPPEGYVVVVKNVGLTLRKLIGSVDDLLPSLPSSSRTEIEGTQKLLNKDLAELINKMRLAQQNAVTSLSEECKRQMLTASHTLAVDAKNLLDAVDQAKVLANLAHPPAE

[10] = target: Cyclin-dependent kinase 9 (Homo sapiens, UniProt P50750); test: Selectivity interaction (KinomeScan (DiscoverX)) EUB0001079a CDK9; conditions: at 1 µM
Sequence of Cyclin-dependent kinase 9 (P50750 whole entry): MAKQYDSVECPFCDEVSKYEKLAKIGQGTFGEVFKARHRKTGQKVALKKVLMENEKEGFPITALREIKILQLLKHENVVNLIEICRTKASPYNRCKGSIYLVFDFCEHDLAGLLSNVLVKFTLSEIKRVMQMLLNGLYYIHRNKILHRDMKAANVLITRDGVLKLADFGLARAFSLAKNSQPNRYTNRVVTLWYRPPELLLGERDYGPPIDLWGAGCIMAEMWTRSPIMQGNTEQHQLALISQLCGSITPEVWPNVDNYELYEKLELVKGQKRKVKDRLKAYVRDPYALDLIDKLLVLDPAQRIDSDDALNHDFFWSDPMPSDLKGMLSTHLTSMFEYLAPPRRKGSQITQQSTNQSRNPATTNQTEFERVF

[11] = target: Serine/threonine-protein kinase/endoribonuclease IRE1 (Homo sapiens) (UniProt O75460); test: Selectivity interaction (KinomeScan (DiscoverX)) EUB0000229b ERN1; conditions: at 10 µM
Sequence of Serine/threonine-protein kinase/endoribonuclease IRE1 (Homo sapiens) (O75460 19-977 limits assumed): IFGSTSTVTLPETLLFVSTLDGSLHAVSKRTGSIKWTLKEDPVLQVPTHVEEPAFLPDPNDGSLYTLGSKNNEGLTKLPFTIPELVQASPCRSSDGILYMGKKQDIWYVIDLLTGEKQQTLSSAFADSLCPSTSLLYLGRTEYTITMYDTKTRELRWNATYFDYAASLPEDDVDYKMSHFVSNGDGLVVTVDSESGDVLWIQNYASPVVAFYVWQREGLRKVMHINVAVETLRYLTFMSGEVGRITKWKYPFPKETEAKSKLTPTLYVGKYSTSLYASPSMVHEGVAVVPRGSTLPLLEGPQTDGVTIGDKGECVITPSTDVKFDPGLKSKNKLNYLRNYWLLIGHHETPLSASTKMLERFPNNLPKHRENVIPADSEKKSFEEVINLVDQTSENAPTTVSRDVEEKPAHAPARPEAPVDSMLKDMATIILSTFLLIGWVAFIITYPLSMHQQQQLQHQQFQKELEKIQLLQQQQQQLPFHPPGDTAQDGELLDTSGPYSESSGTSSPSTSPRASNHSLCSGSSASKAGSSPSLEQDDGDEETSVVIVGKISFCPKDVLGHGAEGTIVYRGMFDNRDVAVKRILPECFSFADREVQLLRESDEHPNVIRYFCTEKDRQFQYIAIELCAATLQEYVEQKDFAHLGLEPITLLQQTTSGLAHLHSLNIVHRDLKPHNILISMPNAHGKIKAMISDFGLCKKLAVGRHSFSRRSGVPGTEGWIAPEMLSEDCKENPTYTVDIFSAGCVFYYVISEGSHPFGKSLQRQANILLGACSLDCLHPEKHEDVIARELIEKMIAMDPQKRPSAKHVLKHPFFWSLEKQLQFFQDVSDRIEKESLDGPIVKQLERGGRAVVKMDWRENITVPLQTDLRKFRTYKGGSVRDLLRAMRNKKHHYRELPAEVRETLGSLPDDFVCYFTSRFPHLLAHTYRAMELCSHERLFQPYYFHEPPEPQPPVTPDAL

[12] = target: MAP kinase-interacting serine/threonine-protein kinase 2 (Homo sapiens, UniProt Q9HBH9); test: Selectivity interaction (KinomeScan (DiscoverX)) EUB0000092b MKNK2; conditions: at 10 µM
Sequence of MAP kinase-interacting serine/threonine-protein kinase 2 (Q9HBH9 whole entry, looked up): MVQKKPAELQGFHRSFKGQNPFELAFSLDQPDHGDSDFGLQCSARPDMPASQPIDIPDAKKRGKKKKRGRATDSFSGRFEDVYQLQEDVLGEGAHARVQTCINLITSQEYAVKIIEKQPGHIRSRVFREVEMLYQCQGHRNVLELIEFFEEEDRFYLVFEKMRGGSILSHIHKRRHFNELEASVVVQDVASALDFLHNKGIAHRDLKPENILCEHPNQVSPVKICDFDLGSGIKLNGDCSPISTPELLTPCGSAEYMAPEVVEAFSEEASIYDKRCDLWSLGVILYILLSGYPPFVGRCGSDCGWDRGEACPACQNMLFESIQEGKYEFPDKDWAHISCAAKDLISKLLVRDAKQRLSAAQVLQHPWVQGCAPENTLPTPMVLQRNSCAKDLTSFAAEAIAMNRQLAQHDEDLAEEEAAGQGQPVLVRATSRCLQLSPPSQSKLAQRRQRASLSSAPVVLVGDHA

[13] = target: Tyrosine-protein kinase JAK1 (Homo sapiens, UniProt P23458); test: Selectivity interaction (KinomeScan (DiscoverX)) EUB0000092b JAK1; conditions: at 10 µM
Sequence of Tyrosine-protein kinase JAK1 (P23458 whole entry): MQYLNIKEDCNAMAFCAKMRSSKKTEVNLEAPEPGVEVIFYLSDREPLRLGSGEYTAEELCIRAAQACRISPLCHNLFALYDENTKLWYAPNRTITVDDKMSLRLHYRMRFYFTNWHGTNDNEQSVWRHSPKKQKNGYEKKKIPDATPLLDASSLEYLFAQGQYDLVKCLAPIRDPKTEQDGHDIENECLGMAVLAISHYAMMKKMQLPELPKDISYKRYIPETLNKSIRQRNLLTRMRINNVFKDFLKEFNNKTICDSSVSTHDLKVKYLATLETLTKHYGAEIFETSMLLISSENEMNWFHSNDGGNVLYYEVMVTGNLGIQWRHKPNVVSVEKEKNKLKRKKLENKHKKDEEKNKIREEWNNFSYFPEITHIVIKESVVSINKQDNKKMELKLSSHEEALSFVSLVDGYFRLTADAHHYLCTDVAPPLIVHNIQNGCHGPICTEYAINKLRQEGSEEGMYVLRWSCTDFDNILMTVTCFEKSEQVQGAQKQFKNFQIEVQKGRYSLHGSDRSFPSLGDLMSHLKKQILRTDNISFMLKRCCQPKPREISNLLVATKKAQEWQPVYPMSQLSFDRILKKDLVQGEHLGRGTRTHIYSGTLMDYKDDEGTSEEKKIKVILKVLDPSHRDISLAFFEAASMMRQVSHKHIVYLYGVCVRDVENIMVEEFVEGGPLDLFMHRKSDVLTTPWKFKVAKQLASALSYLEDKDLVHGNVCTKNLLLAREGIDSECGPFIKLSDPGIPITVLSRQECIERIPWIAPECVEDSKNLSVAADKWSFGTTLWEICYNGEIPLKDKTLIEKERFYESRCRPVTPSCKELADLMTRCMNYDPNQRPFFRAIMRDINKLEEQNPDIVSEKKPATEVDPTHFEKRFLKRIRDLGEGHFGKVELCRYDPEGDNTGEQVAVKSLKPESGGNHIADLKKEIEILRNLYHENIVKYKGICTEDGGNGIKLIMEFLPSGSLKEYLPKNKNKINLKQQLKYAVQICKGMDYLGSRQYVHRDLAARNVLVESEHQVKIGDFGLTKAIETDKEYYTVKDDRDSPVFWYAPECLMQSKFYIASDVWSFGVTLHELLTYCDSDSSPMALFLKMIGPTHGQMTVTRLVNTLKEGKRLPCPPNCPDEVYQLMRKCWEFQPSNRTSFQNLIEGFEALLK

[14] = target: Cyclin-dependent kinase 7 (Homo sapiens, UniProt P50613); test: Selectivity interaction (KinomeScan (DiscoverX)) EUB0000092b CDK7; conditions: at 10 µM
[15] = target: Hepatocyte growth factor-like protein (Homo sapiens) (UniProt P26927); conditions: at 10 µM

% of control [1]: -2.62%
SMILES: Cn1cc(-n2cnc3c(NCc4nc5cc(Cl)c(Cl)cc5[nH]4)nc(N4CCOCC4)nc32)cn1

SMILES: CNC(=O)Nc1ccc(-c2nc(N3CC4CCC(C3)O4)c3cnn(C4CCC5(CC4)OCCO5)c3n2)cc1
% of inhibition [2]: 3%

pXC50 [3]: < 4.3 M
SMILES: CCn1c(-c2nc3cc(C(=O)N4CCCC(N)C4)ccc3n2C)cc2ccccc21 (stereo unspecified)

% of inhibition [4]: -0.8% | % of inhibition [5]: 13.8% | % of inhibition [6]: -8.7%
SMILES: CC[C@@H]1[C@H](F)C(=O)N[C@@H]1COc1nccc2cc(C(N)=O)c(OC)cc12 [ZIMLOVISERTIB]

dTM [7]: -0.1 K
SMILES: CN(C(=O)c1cnn2cccnc12)c1cc2c(cc1N1CCOCC1)C(=O)N(C[C@@H](F)C(C)(C)O)C2

% of control [8]: 108%
SMILES: CC(=O)Nc1cccc(-n2c(=O)n(C3CC3)c(=O)c3c(Nc4ccc(I)cc4F)n(C)c(=O)c(C)c32)c1

SMILES: C=CC(=O)Nc1cc(-n2c(=O)ccc3cnc4ccc(-c5ccc(NS(C)(=O)=O)cc5)cc4c32)ccc1C
% of control ([9]; at 1 µM): 100% | % of control ([9]; at 10 µM): 92%

SMILES: Nc1cnc(N2CCc3cc(S(=O)(=O)Nc4c(F)cc(Cl)cc4F)cc(N4CCCC4=O)c32)nc1 [TP-020n]
% of control [10]: 100%

SMILES: COc1cc(N(C)c2ccnc3ccc(C(F)(F)F)cc23)cc(OC)c1OC
% binding [11]: 70%

SMILES: CCC(=O)N1CCN(c2ccc(-n3c(=O)ccc4cnc5ccc(-c6cnc7ccccc7c6)cc5c43)cc2C(F)(F)F)CC1
% of control [12]: 54% | % of control [13]: 76% | % of control [14]: 57%

SMILES: Cc1cc([C@@H](C)Nc2ccccc2C(=O)O)c2nc(N3CCOCC3)cc(=O)n2c1 [AZD-6482]
% of control [15]: 95%
